Earlier results on 3 compounds are cited in US6458376B1, “Nonaqueous fluorinated drug delivery suspensions” (Allergan, Inc., priority 1990, dated 2002).

The conditions of data set [1]: for Boiling point: ambient pressure.
For data set [2] the following is noted: systemically administered.

As to `O` [Water, reference compound], in data set [1], the “Density @ 25° C.” value is listed as 1.000 gms/mL, the “Kin. viscosity @ 25° C.” value is listed as 1.00 cst, the “Specific heat @ 25° C.” value is 1.00 g-cal/gm and the “Surface tension @ 25° C.” value was 72.0 dynes/cm.

Turning to `FC1(F)C(F)(F)C(F)(F)C2(F)C(F)(F)C(F)(F)C(F)(F)C(F)(F)C2(F)C1(F)F` (centres unmarked) [PFD, Perfluoro(decahydronaphthalene)], in data set [2], the elimination half life entry is listed as “about 7 days” and the “elimination half-life (in words)” value is recorded as “quite rapid”. For the same compound, in data set [1], the “Density @ 25° C.” value was 1.929 gms/mL, the “Kin. viscosity @ 25° C.” value was 2.9 cst, the “Specific heat @ 25° C.” value is listed as 0.22 g-cal/gm and the “Surface tension @ 25° C.” value is reported as 19.3 dynes/cm. For the same compound, in data set [1], the Boiling point is 142 °C.

For `FC1(F)C(F)(F)C(F)(F)C2(F)C(F)(C1(F)F)C(F)(F)C(F)(F)C1(F)C(F)(F)C(F)(F)C(F)(F)C(F)(F)C12F` (centres unmarked) [PPP, perfluoroperhydrophenanthrene], the “elimination half-life (in words)” value in data set [2] is given as “quite rapid”. Further, in data set [1], the “Density @ 25° C.” value is listed as 2.016 gms/mL, the “Kin. viscosity @ 25° C.” value is 8.0 cst, the “Specific heat @ 25° C.” value is listed as 0.27 g-cal/gm and the “Surface tension @ 25° C.” value is reported as 21.6 dynes/cm. For the same compound, the Boiling point in data set [1] is 215 °C.
